Common to all, as to test: NCI anticancer screen, dose series, 48 h
The subject of test [1] is SF-295 CNS.
Test [2] has as its system NCI-H226 lung.
Test [3] relates to OVCAR-8 ovarian.
In test [4] the test system is SN12C renal.
Test [5] relates to MOLT-4 leukemia.
Test [6] relates to DU-145 prostate.
In test [7] the test system is MDA-MB-231 breast.
In test [8] the test system is UACC-62 melanoma.
Test [9] has as its system HCT-116 colon.
The subject of test [10] is HCT-15 colon.

Consider twelve compounds from PubChem BioAssay (NCI).

Structures are written as SMILES. Values joined by “and” are separate entries in the source; they are usually repeats but may differ in a detail not shown here. Equal entries are not always repeated.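 The compound was tested at five concentrations on cells cultured in 96-well plates, with a 48-hour exposure period. Here, GI50 denotes the concentration required for 50% inhibition of growth. TGI: total growth inhibition.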

Take `O=C(c1nc2ccccc2[nH]1)C1C(c2cccc([N+](=O)[O-])c2)C2CC3CCCCC3N2[C@@]12C(=O)Nc1cc(Cl)ccc12` (stereo not given in full): the GI50 in test [1] is 1.56 µM; in [2], 1.59 µM; in [3], 2.68 µM; in test [4] it was 1.72 µM; in test [5], 2.38 µM; in test [6], 1.55 µM. The GI50 in [7] is 1.49 µM; in test [8] it was 1.5 µM. Moreover, the TGI was determined as 3.58 µM in test [1]; 3.48 µM in test [2]; 20.1 µM in test [3]; 3.62 µM in test [4]; 10.1 µM in [5]; 3.26 µM in test [6]. Further, the results for the TGI in test [7] and in test [8] were 3.17 µM and 3.2 µM, respectively.

For the compound `CCOC(=O)Nc1ccc2nc(Sc3ccc(Cl)cc3)sc2c1`, the GI50 in test [1] is 2.19 µM; in test [2], 7.9 µM; in [9], 1.19 µM; in test [3], 7.72 µM; in [4], 6.49 µM; in test [5], 4.2 µM. In addition, the GI50 in test [6] is 4.33 µM; in [7], 4.47 µM; in test [8] it was 1.6 µM; in test [10], 0.632 µM. The TGI in test [1] was 33.9 µM; in test [2], 76.3 µM; in test [9], 39.3 µM; in test [3], 70.4 µM; in test [4], > 100 µM; in [5], > 87.6 µM. Further, the TGI was > 48.5 µM in test [6], 34 µM in test [7], 48.3 µM in test [8] and > 87.3 µM in test [10].

On to `CCOC(=O)CCC(NC(=O)c1ccc(Nc2nc3cc(N)cc(N)c3nc2-c2ccccc2)cc1)C(=O)OCC` (stereo not given), for which the GI50 was > 42 µM in test [1]; > 51.6 µM in test [2]; > 38.7 µM in test [9]; 47.1 µM in test [3]; 26.2 µM in [4]; 9.9 µM in [5]. The GI50 in [6] was 65.8 µM; in [7], 16.5 µM; in [8] it was 12.6 µM; in test [10] it was > 48.1 µM. Besides, the TGI was > 66.3 µM in test [1]; > 74.1 µM in [2]; > 71.6 µM in test [9]; > 100 µM in [3]; 58.1 µM in test [4]; > 27.2 µM in test [5]. The TGI was > 100 µM in [6], > 53.2 µM in [7], > 38.2 µM in test [8] and > 100 µM in test [10].

As for `CCn1c(-c2nonc2N)nc2c(C#CC(C)(C)O)ncc(OCC3CCNCC3)c21`, the GI50 is 5.29 µM in test [1]; > 15.2 µM in [2]; 6.67 µM in [9]; 9.68 µM in test [3]; 9.17 µM in test [4]; 8.3 µM in test [5]. Moreover, the GI50 was 8.15 µM in test [6], > 25 µM in [7], 8.02 µM in [8] and 16.5 µM in test [10]. The TGI in [1] is > 25 µM; in [2] it was > 25 µM; in [9] it was > 20.9 µM; in [3] it was > 25 µM; in test [4], > 25 µM; in test [5], > 25 µM. For the same compound, the TGI in test [6], in [7], in [8] and in [10] was > 25 µM in each case.

As for `COC(=O)[C@@H](C)C[C@H](Cc1ccccc1)NC(=O)c1csc([C@@H](C[C@H](C(C)C)N(C)C(=O)[C@@H](NC(=O)CN(C)C)C2CC2)OC(C)=O)n1`, the GI50 is 0.0168 µM in test [1]; 0.554 µM in test [2]; 0.0154 µM in test [9]; 0.0495 µM in test [3]; 0.0647 µM in [4]; 0.0501 µM in test [5]. Moreover, the GI50 is 0.0169 µM in [6], 0.0858 µM in test [7], 0.0112 µM in [8] and 0.135 µM in test [10]. Also, the TGI in [1] is 0.329 µM; in [2], > 13.2 µM; in test [9], > 5.86 µM; in test [3] it was > 16.5 µM; in test [4] it was > 16.5 µM; in test [5], > 16.5 µM. Also, the TGI in test [7], in test [8] and in test [10] was > 16.5 µM each time.

As to `CC[C@@]1(O)C(=O)N(CCN(C)C)Cc2c1cc1n(c2=O)Cc2cc3ccccc3nc2-1`, the GI50 in test [1] was 5.63 µM; in test [2] it was 64.3 µM; in test [9], 12.4 µM; in test [3] it was 12.5 µM; in test [4], 8.85 µM; in test [5], 3.93 µM. Also, the GI50 in test [6] was 4.64 µM; in test [7], > 100 µM; in test [8], 7.2 µM; in [10], 33.1 µM. For the same compound, the TGI in test [1], in test [2], in test [9], in test [3], in [4] and in test [5] was > 100 µM each time. In addition, the TGI in [6], in [7], in test [8] and in [10] was > 100 µM in each case.

`NC(=S)c1cn(C2OC(CO)C(O)C2O)c2ncnc(N)c12` (stereo not given): the GI50 in test [1] was 0.287 µM; in test [2] it was 0.602 µM; in [9] it was 0.0876 µM; in test [3] it was 0.209 µM; in test [4], 0.201 µM; in [5] it was 0.0386 µM. Further, the GI50 was 0.217 µM in test [6], 0.152 µM in test [7], 0.124 µM in [8] and 0.191 µM in [10]. Moreover, the TGI was 3.07 µM in test [1]; > 21.1 µM in test [2]; > 33.9 µM in [9]; 12.5 µM in test [4]; 0.261 µM in test [5]; 5.44 µM in test [6]. The TGI is > 100 µM in test [7] and 0.406 µM in [8].

As for `CO[C@H]1/C=C/C=C/C=C/C[C@H](OC(=O)[C@@H](C)NC(=O)C2CCCCC2)[C@H](C)[C@@H](O)/C(C)=C\CCC2=CC(=O)C=C(NC(=O)C1)C2=O`, the GI50 in [1] was 0.124 µM; in test [2] it was 0.157 µM; in [9], 0.0472 µM; in test [3], 0.194 µM; in [4] it was 0.106 µM; in test [5], 0.142 µM. The GI50 was 0.127 µM in [6], 0.137 µM in test [7], 0.0801 µM in [8] and 0.336 µM in test [10]. For the same compound, the TGI came out at 0.966 µM in test [1]; 0.797 µM in test [2]; 0.738 µM in [9]; 1.57 µM in test [3]; 0.556 µM in test [4]; 7.04 µM in [5]. The TGI in test [6] was found to be 1.4 µM; in test [7] it was 0.934 µM; in test [8] it was 0.682 µM; in test [10] it was 5.57 µM.

In the case of `COc1cc2cc(C(=O)N3C[C@H](CCl)c4c3cc(O)c3ccccc43)[nH]c2c(OC)c1OC`, the TGI in test [1] was 1.23 µM; in [2], 0.504 µM and 3.38 µM; in test [9], 59 µM; in test [3], 1.13 µM and 3.53 µM; in test [5], 6.22 µM; in test [6], 1.53 µM and 0.213 µM. Further, the TGI in [7] was 3.94 µM. Further, the GI50 in test [2] is 1.79 µM; in test [9] it was 0.0165 µM; in [3], 1.67 µM; in test [5] it was < 0.01 µM; in test [6], < 0.01 µM; in test [8], 0.0351 µM. Also, the GI50 in test [10] is 0.022 µM.

With `C=C(C)[C@@H]1CC[C@@H]2C(=CC[C@]3(C)C([C@H](C)CC/C=C(/C)C(=O)O)CC[C@@]23C)[C@@]1(C)CCC(=O)O` (stereo not given in full), the TGI in test [1] is > 100 µM; in test [2], 83.1 µM; in test [9] it was 43.7 µM; in test [3] it was > 100 µM; in test [4], > 100 µM; in test [6], 60.5 µM. In addition, the TGI in test [7] stood at 60.2 µM; in test [8] it was 39.4 µM; in test [10] it was 44.4 µM.

Turning to `S=C1NC2=C(CCOc3c2ccc2ccccc32)C(c2ccc(Cl)cc2)N1` (stereo not given), the GI50 in test [1] is 31.9 µM; in test [2], 17 µM; in test [3], 44.7 µM; in [4], 25.8 µM; in test [5], 25.2 µM; in [6], 27.9 µM. Also, the GI50 in test [7] is 10.6 µM; in test [8] it was 21.7 µM; in test [10], 14.3 µM. The TGI in test [1] is > 100 µM; in test [2], 49.5 µM; in test [3] it was > 100 µM; in test [4], 66 µM; in test [5] it was > 100 µM; in [6], > 100 µM. In addition, the TGI stood at 67.6 µM in test [7], 76.4 µM in [8] and 86 µM in test [10].

Regarding `Cc1c(-c2ccnc(N)n2)c2c(n1-c1ccccc1)C(=O)c1ccccc1C2=O`, the GI50 in [1] is 14 µM; in [9] it was 14.3 µM; in test [3], 17.2 µM; in [4] it was 14.7 µM; in test [6], 21.1 µM; in test [7], 19.7 µM. The GI50 in test [8] was 27.2 µM; in test [10], 16 µM. Also, the TGI in [1] was 30.7 µM; in test [9] it was > 100 µM; in test [3], > 100 µM; in [4], 53.8 µM; in test [6] it was 60.7 µM; in test [7], 63.3 µM. Moreover, the TGI is 77.2 µM in test [8] and > 100 µM in test [10].
